Assay results taken from US20090028820A1, “Antiviral Agent” (MITSUBISHI TANABE PHARMA CORPORATION, priority 2005, published 2009).

How the values were obtained:
HCV-subgenomic replicon = conditions: Huh7 cells; cited from earlier work
Hepatitis C virus = conditions: cited from earlier work
[1] = tested on: HCV-replicon cell clone #5-15 derived from Huh7; assay: Growth of HCV-replicon cell strain (Cell Titer 96 Aqueous One Solution Cell Proliferation Assay, absorbance 490 nm); type: cell-based, human; conditions: HGF 0, 10, 100 ng/ml; IFNα 0, 0.1, 0.3 IU/ml; 48 hours
Protocol: To determine whether or not the decreases in the replication of HCV-replicons observed in Example 1 were attributable to the decrease in the cell count itself, the following experiment was performed.
The clone #5-15 was suspended in Dulbecco's Eagle's MEM medium containing 2% fetal bovine serum, and seeded on a 96-well plate at 1.5×10^4 cells/100 μl/well. As blank, wells added with a medium alone was prepared without seeding cells (Day 0). After culture overnight in a humid incubator at 37° C. under 5% CO2 gas, 50 μl each of human recombinant IFNα (BIOMEDICAL LABORATORIES, Cat. No. 11105-1, lot No. #2122) and/or human recombinant HGF (produced in-house, Lot No. 920629) was added to each well. The final concentrations of IFNα were 0, 0.1 and 0.3 international unit (IU)/ml, the final concentrations of HGF were 0, 10 and 100 ng/ml, and the final volume was adjusted to 200 μl for all the wells. Three wells (triplicate) were prepared for each sample (Day 1). After culture for 48 hours, the number of cells was measured by Cell Titer 96 Aqueous One Solution Cell Proliferation Assay (Promega, Lot #171755), which is a type of cell growth assay kit. The measurement was performed according to the manual of the assay kit. […] Then, the plate was incubated for one hour in a humid incubator containing 5% CO2 set at 37° C., and then measured at absorbance 490 nm by using a 96-well plate reader.

HCV-replicon = assay: Inhibition of HCV-replicon replication in HCV-replicon cells (quantitative PCR of replicon RNA); type: cell-based, Hepatitis C virus; conditions: for inhibition of replication of the HCV-replicon: HGF alone, clone #5-15, 48 hours
Protocol: As a cell system for in vitro replication of HCV, an HCV-replicon cell clone #5-15 derived from the human liver cancer cell strain Huh7 was used (purchased from ReBLikon GmbH). The clone #5-15 was suspended in the Dulbecco's Eagle's MEM medium containing 2% fetal bovine serum, and seeded on a 96-well plate at 1.5×10^4 cells/100 μl/well. As blank, wells added with the medium alone was prepared without seeding the cells (Day 0). After culture overnight in a humid incubator at 37° C. under 5% CO2 gas, 50 μl each of human recombinant IFNα (BIOMEDICAL LABORATORIES, Cat. No. 11105-1, lot No. #2122) and/or human recombinant HGF (produced in-house, Lot No. 920629) was added to each well. The final concentrations of IFNα were 0, 0.1 and 0.3 international unit (IU)/ml, the final concentrations of HGF were 0, 10 and 100 ng/ml, and the final volume was adjusted to 200 μl for all the wells. Three wells (triplicate) were prepared for each sample (Day 1). After culture for 48 hours, total RNA was extracted from each well by using ABI-PRIZM 6100 Nucleic Acid PrepStation (Applied Biosystems). Extraction was performed according to the operation manual of the apparatus. The solution of the extracted RNA was stored at −80° C. (Day 3). The samples were thawed on the next day, and amounts of the HCV-replicon RNA were quantified by quantitative polymerase chain reaction (PCR). The quantification was performed according to the method of Takeuchi et al. (Takeuchi, T. et al., Gastroenterology, Vol. 116, 636-642 (1999)) by using ABI PRISM 7900 (Applied Biosystems).
RNAs used in the quantitative PCR for a standard curve were prepared by in vitro transcription using a vector obtained by ligating the gene of the HCV MKC-1A strain (Genbank accession No. D45172) to the downstream of the T7 promoter using T7 RiboMAX Express Large Scale RNA Production System (Promega), and it was confirmed that linearity was obtainable between 10^2 and 10^8 in the aforementioned quantitative PCR.

In the case of `COc1ccc2c(O[C@@H]3C[C@H]4C(=O)N[C@]5(C(=O)O)C[C@H]5/C=C\CCCCC[C@H](NC(=O)OC5CCCC5)C(=O)N4C3)cc(-c3csc(NC(C)C)n3)nc2c1` [BILN-2061], the “inhibition of replication of replicon RNA” value (HCV-subgenomic replicon) is listed as “inhibits replication of replicon RNA” and the improvement of viremia (Hepatitis C virus; patients with hepatitis C) is listed as “confirmed to improve viremia”.

In the case of `NC(=O)c1ncn([C@@H]2O[C@H](CO)[C@@H](O)[C@H]2O)n1` [Ribavirin, ribavirin], the “efficacy against HCV” value (Hepatitis C virus; agent alone) is given as “ineffective”.

For “HGF: human recombinant HGF (produced in-house, Lot No. 920629); hepatocyte growth factor”, the “inhibition of growth of the HCV-replicon cell line” value [1] was “not observed to inhibit the growth”, the “effect of HGF on IFN-dependent inhibition of virus replication” value (HCV-replicon; HGF 10 ng/ml combined with IFN) was “synergistically enhanced” and the “inhibition of replication of the HCV-replicon” value (HCV-replicon; 10 ng/ml) was “almost no inhibition of the replication was observed”. The “inhibition of replication of the HCV-replicon” value (HCV-replicon; 100 ng/ml) was “inhibited the replication of the HCV-replicon”, the “effect of HGF on inhibition of HCV-replicon replication by IFN” value (HCV-replicon; HGF combined with IFN 0.1 IU/ml) was “synergistically acted to inhibit the replication of HCV-replicons” and the “effect of HGF on inhibition of HCV-replicon replication by IFN” value (HCV-replicon; HGF combined with IFN 0.3 IU/ml) was “effect of HGF was not observed”.
